The record followed here is ChEMBL document CHEMBL3868608, “Discovery of 1,3-diethyl-7-methyl-8-(phenoxymethyl)-xanthine derivatives as novel adenosine A1 and A2A receptor antagonists” (Bioorg Med Chem Lett, 2016).

In assay [1] the target is T1, Adenosine receptor A1 (Rattus norvegicus, UniProt P25099).
T1 sequence (P25099 whole entry): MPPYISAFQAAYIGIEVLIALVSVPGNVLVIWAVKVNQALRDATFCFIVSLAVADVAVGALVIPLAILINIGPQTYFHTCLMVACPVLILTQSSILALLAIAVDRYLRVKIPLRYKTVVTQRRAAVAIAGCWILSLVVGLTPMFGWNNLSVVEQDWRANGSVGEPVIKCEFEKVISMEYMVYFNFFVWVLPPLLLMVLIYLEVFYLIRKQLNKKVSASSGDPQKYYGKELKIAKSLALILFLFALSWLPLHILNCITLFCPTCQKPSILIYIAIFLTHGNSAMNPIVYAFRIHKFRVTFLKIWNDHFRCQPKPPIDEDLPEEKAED
Description: Displacement of [3H]DPCPX from adenosine receptor A1 in Sprague-Dawley rat whole brain cell membranes after 60 mins by liquid scintillation counting.

Assay [2] addresses T2, Adenosine receptor A2a (Rattus norvegicus, UniProt P30543). Description: Displacement of [3H]NECA from adenosine receptor A2A in Sprague-Dawley rat striatal membranes after 60 mins by liquid scintillation counting. More on the design: species or system Striatum, Membrane. (In general: Loss of bound radioactivity is the signal in a displacement assay; it reports binding, not function.)

The subject of another assay is brain. Description: Selectivity index, ratio of Ki for adenosine receptor A2A in Sprague-Dawley rat striatal membranes to Ki for adenosine receptor A1 in Sprague-Dawley rat whole brain cell membranes. Format: cell-based.
The target in assay [3] is T2, Adenosine receptor A2a. Description: Displacement of [3H]NECA from adenosine receptor A2A in rat striatal membranes.
In assay [4] the target is T1, Adenosine receptor A1. Put plainly: Displacement of [3H]DPCPX from adenosine receptor A1 in Sprague-Dawley rat whole brain membranes after 60 mins in presence of GTP by liquid scintillation counting method. More on the design: species or system Membrane.

The Ki is a dissociation constant, usually derived from enzyme kinetics or from competition with a known ligand.

T2 sequence (P30543 whole entry): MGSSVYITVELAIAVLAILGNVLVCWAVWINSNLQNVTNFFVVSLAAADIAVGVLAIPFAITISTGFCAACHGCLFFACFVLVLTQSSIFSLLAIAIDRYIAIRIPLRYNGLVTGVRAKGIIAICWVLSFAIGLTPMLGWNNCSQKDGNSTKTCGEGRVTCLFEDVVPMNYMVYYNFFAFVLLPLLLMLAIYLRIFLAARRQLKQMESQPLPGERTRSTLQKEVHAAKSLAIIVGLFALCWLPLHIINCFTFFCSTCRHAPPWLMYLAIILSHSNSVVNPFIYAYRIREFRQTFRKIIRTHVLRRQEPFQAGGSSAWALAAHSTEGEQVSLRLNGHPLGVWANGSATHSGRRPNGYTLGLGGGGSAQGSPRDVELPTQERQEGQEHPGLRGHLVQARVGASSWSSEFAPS

With `Cn1c(=O)c2c(nc(COc3ccc(Br)cc3)n2C)n(C)c1=O`, the results for the Ki at Adenosine receptor A1 [1] and at Adenosine receptor A2a [2] were 3690 nM and 1730 nM, respectively. Besides, in the assay on brain, the Ratio Ki was determined as 0.5.

On to `CCn1c(=O)c2c(nc(COc3ccc(OC)cc3)n2C)n(CC)c1=O`, for which the Ki came to 1220 nM on Adenosine receptor A1 [1], 237 nM on Adenosine receptor A2a [2] and 237 nM on Adenosine receptor A2a [3].

Consider `CCn1c(=O)c2c(nc(COc3ccccc3)n2C)n(CC)c1=O`, for which the inhibition constant Ki on Adenosine receptor A1 [4] came to 892 nM.

Regarding `Cn1c(=O)c2c(nc(COc3ccc(Cl)cc3)n2C)n(C)c1=O`, the Ki at Adenosine receptor A1 [1] came out at 5560 nM; on Adenosine receptor A2a [2], 940 nM. In the assay with brain, the Ratio Ki was found to be 0.2.

Take `COc1ccc(OCc2nc3c(c(=O)n(C)c(=O)n3C)n2C)cc1`: the values for the Ki at Adenosine receptor A1 [1] and on Adenosine receptor A2a [2] were 4670 nM and 2400 nM, respectively. Besides, in the assay with brain, the Ratio Ki is 0.5.

Turning to `CCn1c(=O)c2c(nc(COc3ccc(Cl)cc3)n2C)n(CC)c1=O`, the Ki is 974 nM at Adenosine receptor A1 [1] and 1040 nM on Adenosine receptor A2a [2]. For the same molecule, in the assay on brain, the Ratio Ki is 1.1.

As to `Cn1c(=O)c2c(nc(COc3ccc(F)cc3)n2C)n(C)c1=O`, the Ki at Adenosine receptor A1 [1] turned out to be 9190 nM; on Adenosine receptor A2a [2], 2570 nM. For the same molecule, the Ratio Ki with brain was found to be 0.3.

With `CCn1c(=O)c2c(ncn2C)n(CC)c1=O`, the inhibition constant (Ki) was found to be 5610 nM on Adenosine receptor A1 [1] and 2690 nM at Adenosine receptor A2a [2]. In the assay on brain, the Ratio Ki was 0.5.

As to `Cc1ccc(OCc2nc3c(c(=O)n(C)c(=O)n3C)n2C)cc1`, the figures for the Ki at Adenosine receptor A1 [1] and at Adenosine receptor A2a [2] were 6760 nM and 3640 nM, respectively. The Ratio Ki in the assay with brain stood at 0.5.

Consider `CCn1c(=O)c2c(nc(COc3ccc(Br)cc3)n2C)n(CC)c1=O`, for which the Ki came out at 264 nM on Adenosine receptor A1 [1], 1360 nM at Adenosine receptor A2a [2] and 267 nM on Adenosine receptor A1 [4].

For `CCn1c(=O)c2c(nc(COc3ccc(F)cc3)n2C)n(CC)c1=O`, the Ki on Adenosine receptor A1 [1] was determined as 1230 nM; at Adenosine receptor A2a [2], 841 nM. Further, the Ratio Ki in the assay with brain came out at 0.7.

Take `CCn1c(=O)c2c(nc(COc3ccc(C)cc3)n2C)n(CC)c1=O`: the Ki at Adenosine receptor A1 [1] stood at 1420 nM; at Adenosine receptor A2a [2], 1300 nM. Further, in the assay on brain, the Ratio Ki was determined as 0.9.
